These results are taken from patent US8277842B1, “Enteric-coated HT-2157 compositions and methods of their use” (Dart NeuroScience (Cayman) Ltd., priority 2012, dated 2012).

One series can be described thus: in vivo. The note with it: rat, po; for AUC(0-t): AUC0-24 of HT-2157 in plasma; for Cmax: Cmax of HT-2157 in plasma; for NOEL / NOEL (first NOEL column) / non-toxic dose level: 28 days. As to the method:
(§1) Consequently, separate toxicokinetic studies directed to […] (without an enteric coating) were performed in rat and in dog, which is considered the more sensitive species. […] In these studies, the non-toxic dose level for oral administration of HT-2157 over 28 days was 30 mg/kg/day for female rats, 100 mg/kg/day for male rats and 50 mg/kg/day for dogs (both sexes). Table 1 lists the mean Cmax and AUC values of HT-2157 in the plasma associated with these dosages: […]

Series [1] can be described thus: 28-day oral toxicity study with non-enteric coated HT-2157, dog. The note with it: for Cmax / AUC(0-t): plasma, 50 mg/kg/day, at NOEL; for AUC(0-t): read-out: AUC0-24 of HT-2157 in plasma. Type of series: in vivo. As to the method: as §1
Series [2] in a line: Metabolite HT-2800 in microsomes incubated with HT-2157, human. Type of series: in vitro ADME. Here is the method:
(§2) Such HT-2157 administration studies were carried out in several animal models, including rats, dogs (as well as mice). In this regard, the major human metabolite of HT-2157, HT-2800, was found in human, mouse, and monkey microsomes following incubation with the HT-2157 compound, but it was not detected in rat or dog microsomes or in plasma collected from dogs dosed with HT-2157.

A short description of series [3]: Metabolite HT-2800 in microsomes incubated with HT-2157, mouse. Type of series: in vitro ADME. As to the method:
as §2

A short description of series [4]: Metabolite HT-2800 in microsomes incubated with HT-2157, monkey. Type of series: in vitro ADME. Here is the method: as §2
Series [5] can be described thus: Metabolite HT-2800 in microsomes incubated with HT-2157, rat. Type of series: in vitro ADME. Here is the method:
as §2

A short description of series [6]: Metabolite HT-2800 in microsomes incubated with HT-2157, dog. Type of series: in vitro ADME. Here is the method:
as §2

The nature of series [7]: Metabolite HT-2800 in plasma of dogs dosed with HT-2157. Type of series: in vivo, dog. The following applies: plasma collected from dogs dosed with HT-2157. As to the method: as §2
Series [8] can be described thus: Ninety-day study with HT-2157, methemoglobin formation, mice. Type of series: in vivo. From the text: (§3) These findings indicate that a process of hemolytic anemia and compensatory hematopoietic response to anemia occurred in the animals. The hemolytic anemia was reversible upon discontinuation of drug treatment. In animals at high doses, there were also increases in methemoglobin of between 30 and 40% in treatment as compared to control animals. These increases resolved 1 to 2 weeks after discontinuation of dosing.

A short description of series [9]: Ninety-day study with HT-2157, methemoglobin formation, rats. Type of series: in vivo.
Source text: as §3

Series [10] in a line: Ninety-day study with HT-2157, methemoglobin formation, dogs. Type of series: in vivo.
Source text: as §3

Series [11] is described as follows: Repeat-dose animal toxicology studies, PO. Type of series: in vivo, mice, rats, dogs. The note with it: non-enteric coated.
The conditions of series [12]: after systemic administration; Oegren et al. 2006; cited from earlier work.
[13] abbreviates: female, female dog, day 1 of dosing.
Where [14] appears, read: female, female dog, day 28 of dosing.
[15] abbreviates: male, male dog, day 1 of dosing.
Setting [16] is: male, male dog, day 28 of dosing.

By Cmax is commonly meant the maximum level reached in the sampled fluid or tissue. With `O=C1C(=Nc2cccc(C(F)(F)F)c2)c2ccccc2N1c1ccccc1` [HT-2157], the “AUC0-24 of HT-2157 in plasma” value in the series “in vivo” (female, 30 mg/kg/day) is 235 ng·h/mL; in “in vivo” (male, 100 mg/kg/day), 1445 ng·h/mL. The AUC(0-t) was found to be 283 ng·h/mL in “in vivo” (female, 30 mg/kg/day); 1380 ng·h/mL in the series “in vivo” (male, 100 mg/kg/day); 571 ng·h/mL in series [1] (setting [13]); 799 ng·h/mL in series [1] (setting [14]); 676 ng·h/mL in [1] (setting [15]); 550 ng·h/mL in series [1] (setting [16]). Besides, the highest concentration (Cmax) in “in vivo” (female, 30 mg/kg/day) came to 109 ng/mL; in the series “in vivo” (male, 100 mg/kg/day) it was 252 ng/mL; in series [1] (setting [13]) it was 162 ng/mL; in [1] (setting [14]), 104 ng/mL; in series [1] (setting [15]), 99 ng/mL; in [1] (setting [16]), 87.1 ng/mL. Also, the “NOEL” value in the series “in vivo” (female) was found to be 177; in “in vivo” (male) it was 590; in [1] (female, in vivo, 28 days), 1000; in [1] (male, in vivo, 28 days), 1000. Also, the “NOEL (first NOEL column)” value in “in vivo” (female) stood at 30; in the series “in vivo” (male), 100; in series [1] (female, in vivo, 28 days), 50; in series [1] (male, in vivo, 28 days) it was 50. Also, the non-toxic dose level is 30 mg/kg/day in “in vivo” (female); 100 mg/kg/day in the series “in vivo” (male); 50 mg/kg/day in [1] (both, in vivo, 28 days). In addition, the “metabolite HT-2800 following incubation with HT-2157” value in series [2] was “found”; in series [3] it was “found”; in series [4], “found”; in [5], “not detected”; in [6] it was “not detected”. Moreover, the “metabolite HT-2800 in plasma” value in [7] is listed as “not detected”. The “dose with statistically significant methemoglobin formation” value in series [8] is 750 mg/kg/day; in series [9], 150 mg/kg/day; in [10], no less than 30 mg/kg/day. In [11] (mice up to 3 months, rats up to 1 year, dogs up to 9 months), the “drug-related findings in repeat-dose toxicology” value is “dose-dependent shifts in hemoglobin fractions (methemoglobin, carboxyhemoglobin, oxyhemoglobin) and mild to moderate reversible hemolytic anemia with associated compensatory responses”. The blood-brain barrier passage result in series [12] is reported as “can cross the blood-brain barrier”.
On to `O=C1C(=Nc2cccc(C(F)(F)F)c2)c2ccccc2N1c1ccc(O)cc1` [HT-2800], for which the “drug-related findings in repeat-dose toxicology” value in series [11] (rats up to 6 months, dogs 9 months) is “dose-dependent shifts in hemoglobin fractions (methemoglobin, carboxyhemoglobin, oxyhemoglobin) and mild to moderate reversible hemolytic anemia with associated compensatory responses”.
